{"source": "patent US11690845B2", "about": "“Methods of administering elagolix” (priority 2020, dated 2023)", "key": {"[1]": {"assay": "Pharmacogenomics: elagolix plasma concentrations by SLCO1B1 521T>C genotype", "format": "in vivo, human", "conditions": "SLCO1B1 521 C/C genotype", "text": "Hepatic uptake of elagolix involves the OATP1B1 transporter protein. Higher plasma concentrations of elagolix have been observed in patients who have two reduced function alleles of the gene that encodes OATP1B1 (SLCO1B1 521T>C) (these patients are likely to have reduced hepatic uptake of elagolix; and thus, higher plasma elagolix concentrations). The frequency of this SLCO1B1 521 C/C genotype is generally less than […] in most racial/ethnic groups. Women with this genotype are expected to have approximately 2-fold higher elagolix mean concentrations compared to women with normal transporter function (i.e., SLCO1B1 521T/T genotype). Adverse effects of elagolix have not been fully evaluated in subjects who have two reduced function alleles of the gene that encodes OATP1B1 (SLCO1B1 521T>C). The above listed examples should not be deemed to limit the scope of the invention as claimed."}, "CYP2B6": {"test_system": "CYP2B6", "assay": "In vitro studies: CYP2B6 induction", "format": "in vitro ADME"}, "[2]": {"target": "T1, rat gonadotropin-releasing hormone (GnRH) receptor (Rattus norvegicus, UniProt P30969)", "T1 sequence (P30969 1-327)": "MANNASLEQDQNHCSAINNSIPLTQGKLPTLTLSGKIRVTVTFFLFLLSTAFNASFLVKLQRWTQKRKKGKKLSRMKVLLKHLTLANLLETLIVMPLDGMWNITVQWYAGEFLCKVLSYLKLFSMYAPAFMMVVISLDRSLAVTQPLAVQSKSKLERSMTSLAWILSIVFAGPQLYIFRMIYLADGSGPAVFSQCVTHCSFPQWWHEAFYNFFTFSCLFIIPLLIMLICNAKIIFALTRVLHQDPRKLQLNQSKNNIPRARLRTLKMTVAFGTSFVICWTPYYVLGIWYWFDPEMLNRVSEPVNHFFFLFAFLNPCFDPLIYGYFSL", "assay": "Binding to rat versus human GnRH receptor", "conditions": "rat vs human GnRH receptor"}, "[3]": {"assay": "Drug interaction studies: pharmacokinetics of elagolix in the presence of co-administered drugs", "format": "in vivo, human", "conditions": "for Ratio (90% CI) AUC of elagolix, co-administration vs elagolix alone / Ratio (90% CI) Cmax of elagolix, co-administration vs elagolix alone: elagolix 150 mg single dose", "experimental": "Drug interaction studies were performed with elagolix and other drugs likely to be co-administered and with drugs commonly used as probes for pharmacokinetic interactions."}, "OATP1B1": {"target": "T2, OATP1B1 (Homo sapiens, UniProt Q9Y6L6)", "T2 sequence (Q9Y6L6 1-691)": "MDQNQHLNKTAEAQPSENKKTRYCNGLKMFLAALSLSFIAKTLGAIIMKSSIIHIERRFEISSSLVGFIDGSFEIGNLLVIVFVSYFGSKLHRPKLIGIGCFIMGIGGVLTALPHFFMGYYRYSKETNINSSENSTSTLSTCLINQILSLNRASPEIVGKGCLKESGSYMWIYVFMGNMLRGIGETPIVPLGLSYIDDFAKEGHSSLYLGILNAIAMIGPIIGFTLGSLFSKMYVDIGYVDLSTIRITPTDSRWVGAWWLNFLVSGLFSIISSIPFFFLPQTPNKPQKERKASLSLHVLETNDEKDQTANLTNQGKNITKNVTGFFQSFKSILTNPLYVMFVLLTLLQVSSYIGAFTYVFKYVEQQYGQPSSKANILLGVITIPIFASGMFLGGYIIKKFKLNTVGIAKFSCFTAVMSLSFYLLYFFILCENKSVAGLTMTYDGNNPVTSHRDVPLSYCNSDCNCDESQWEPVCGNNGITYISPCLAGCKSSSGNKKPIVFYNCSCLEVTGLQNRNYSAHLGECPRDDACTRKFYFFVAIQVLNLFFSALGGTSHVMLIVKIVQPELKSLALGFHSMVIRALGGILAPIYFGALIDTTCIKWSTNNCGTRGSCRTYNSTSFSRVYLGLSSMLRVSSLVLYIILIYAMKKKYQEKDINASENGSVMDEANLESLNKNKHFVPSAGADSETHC", "assay": "Substrate of OATP1B1", "format": "in vitro ADME"}, "CYP3A": {"test_system": "CYP3A", "assay": "Substrate of / metabolism by CYP3A", "format": "in vitro ADME"}, "[4]": {"assay": "Pre- and postnatal development study in rats", "format": "in vivo, rat", "conditions": "female, rat, plasma, oral, rats, read-out: maternal plasma concentration", "experimental": "(§1) In a pre- and postnatal development study in rats, elagolix was given in the diet to achieve doses of 0, 100 and 300 mg/kg/day (25 per dose group) from gestation day 6 to lactation day 20. […] Pup survival was decreased from birth to postnatal day 4. […] Smaller body size and effect on startle response were associated with lower pup weights at 300 mg/kg/day. Post-weaning growth, development and behavioral endpoints were unaffected."}, "rats": {"test_system": "rats", "assay": "Pre- and postnatal development study in rats", "format": "in vivo, rat", "conditions": "for maternal plasma concentration relative to maximal elagolix concentration (Cmax) in humans at the MRHD: rats", "experimental": "as §1"}, "P-gp": {"target": "P-gp (Homo sapiens, UniProt P08183)", "sequence (P08183 whole entry)": "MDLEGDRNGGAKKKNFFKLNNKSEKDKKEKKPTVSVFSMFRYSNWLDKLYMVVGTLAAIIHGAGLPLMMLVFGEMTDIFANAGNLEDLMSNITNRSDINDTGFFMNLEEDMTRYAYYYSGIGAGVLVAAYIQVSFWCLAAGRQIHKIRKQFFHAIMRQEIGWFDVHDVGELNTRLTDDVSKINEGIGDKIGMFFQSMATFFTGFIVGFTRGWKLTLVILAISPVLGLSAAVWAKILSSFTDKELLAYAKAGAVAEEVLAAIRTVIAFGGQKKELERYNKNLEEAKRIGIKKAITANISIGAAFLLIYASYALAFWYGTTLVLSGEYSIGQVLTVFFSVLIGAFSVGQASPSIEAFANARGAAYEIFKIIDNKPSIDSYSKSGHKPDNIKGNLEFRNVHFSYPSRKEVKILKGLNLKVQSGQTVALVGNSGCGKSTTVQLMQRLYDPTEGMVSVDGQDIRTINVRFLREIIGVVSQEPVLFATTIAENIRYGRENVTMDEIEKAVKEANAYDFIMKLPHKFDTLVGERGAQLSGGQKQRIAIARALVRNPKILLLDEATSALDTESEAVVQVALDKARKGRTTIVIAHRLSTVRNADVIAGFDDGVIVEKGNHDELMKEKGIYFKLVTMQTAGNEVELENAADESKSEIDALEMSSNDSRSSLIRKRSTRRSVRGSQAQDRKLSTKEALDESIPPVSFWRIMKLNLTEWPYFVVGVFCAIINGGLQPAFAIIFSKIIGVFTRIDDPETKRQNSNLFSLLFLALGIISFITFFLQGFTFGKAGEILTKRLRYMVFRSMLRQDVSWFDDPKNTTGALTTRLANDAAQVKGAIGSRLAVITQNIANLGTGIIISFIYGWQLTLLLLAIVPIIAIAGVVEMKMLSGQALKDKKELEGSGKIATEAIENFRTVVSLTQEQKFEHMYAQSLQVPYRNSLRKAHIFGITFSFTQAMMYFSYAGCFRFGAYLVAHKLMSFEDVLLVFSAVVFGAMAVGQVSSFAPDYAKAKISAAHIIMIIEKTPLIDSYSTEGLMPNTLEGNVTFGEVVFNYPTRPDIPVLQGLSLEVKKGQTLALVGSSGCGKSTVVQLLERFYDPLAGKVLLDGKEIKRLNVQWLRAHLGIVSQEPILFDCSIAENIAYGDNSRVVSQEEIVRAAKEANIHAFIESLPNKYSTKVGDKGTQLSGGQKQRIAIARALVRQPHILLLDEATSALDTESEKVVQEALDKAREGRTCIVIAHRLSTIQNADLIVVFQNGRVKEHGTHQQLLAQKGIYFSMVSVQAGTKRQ", "assay": "Substrate of P-gp", "format": "in vitro ADME"}, "rabbits": {"test_system": "rabbits", "assay": "Embryofetal development study in the rabbit", "format": "in vivo", "procedure": "(§2) Embryofetal development studies were conducted in the rat and rabbit. Elagolix was administered by oral gavage to pregnant rats (25 animals/dose) at doses of 0, 300, 600 and 1200 mg/kg/day and to rabbits (20 animals/dose) at doses of 0, 100, 150, and 200 mg/kg/day, during the period of organogenesis (gestation day 6-17 in the rat and gestation day 7-20 in the rabbit)."}, "CYP2C19": {"target": "CYP2C19 (Homo sapiens, UniProt P33261)", "sequence (P33261 whole entry)": "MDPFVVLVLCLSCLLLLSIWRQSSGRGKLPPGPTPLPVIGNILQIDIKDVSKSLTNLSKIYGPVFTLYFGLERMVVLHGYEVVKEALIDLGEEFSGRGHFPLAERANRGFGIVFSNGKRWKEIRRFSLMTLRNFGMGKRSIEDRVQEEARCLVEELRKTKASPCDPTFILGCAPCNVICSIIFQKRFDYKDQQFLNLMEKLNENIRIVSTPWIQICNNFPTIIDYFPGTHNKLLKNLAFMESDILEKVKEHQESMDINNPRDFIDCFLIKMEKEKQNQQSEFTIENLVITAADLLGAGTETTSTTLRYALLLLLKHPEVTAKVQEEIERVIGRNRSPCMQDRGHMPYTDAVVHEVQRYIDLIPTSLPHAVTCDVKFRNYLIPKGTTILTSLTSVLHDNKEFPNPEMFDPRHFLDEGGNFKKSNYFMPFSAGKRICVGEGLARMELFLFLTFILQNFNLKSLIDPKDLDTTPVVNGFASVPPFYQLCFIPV", "assay": "In vitro studies: CYP2C19 inhibition", "format": "in vitro ADME"}, "pregnant rats": {"test_system": "pregnant rats", "assay": "Embryofetal development study in the rat", "format": "in vivo", "procedure": "as §2"}, "CYP3A4": {"test_system": "CYP3A4", "assay": "In vitro studies: CYP3A4 (CYP3A) induction", "format": "in vitro ADME", "conditions": "in vitro studies (CYP3A4; b159: CYP3A)"}, "P-glycoprotein (P-gp)": {"target": "P-glycoprotein (P-gp) (Homo sapiens, UniProt P08183)", "sequence (P08183 whole entry)": "as the sequence (P08183 whole entry) above", "assay": "Inhibition of efflux transporter P-gp", "format": "in vitro ADME"}, "[5]": {"conditions": "Ketoconazole 400 mg once daily, N 11"}, "[6]": {"conditions": "Rifampin 600 mg single dose, N 12"}, "[7]": {"conditions": "lactation day 21, 100 mg/kg/day"}, "[8]": {"conditions": "lactation day 21, 300 mg/kg/day"}, "[9]": {"conditions": "rabbits, highest, maternally toxic dose"}}, "note": "Read-outs that look alike come from different tables or passages of the source.", "data": [{"smiles": "COc1cccc(-c2c(C)n(Cc3c(F)cccc3C(F)(F)F)c(=O)n(C[C@H](NCCCC(=O)O)c3ccccc3)c2=O)c1F", "note": "[elagolix, 4-((R)-2-[5-(2-fluoro-3-methoxy-phenyl)-3-(2-fluoro-6-trifluoromethyl-benzyl)-4-methyl-2,6-dioxo-3,6-dihydro-2H-pyrimidin-1-yl]-1-phenyl-ethylamino)-butyric acid]", "values": [{"measurement": "plasma concentrations in patients with two reduced function alleles of SLCO1B1 521T>C", "setting": "[1]", "value": "Higher"}, {"measurement": "elagolix mean concentrations vs women with normal transporter function (SLCO1B1 521T/T)", "setting": "[1]; expected", "value": "approximately 2 fold higher"}, {"measurement": "CYP2B6 induction", "setting": "CYP2B6", "value": "weak to moderate inducer"}, {"measurement": "binding to rat GnRH receptor relative to human GnRH receptor", "setting": "[2]", "value": "~1000", "unit": "fold less"}, {"measurement": "Ratio (90% CI) AUC of elagolix, co-administration vs elagolix alone", "setting": "[3]; [5]", "value": 2.20}, {"measurement": "Ratio (90% CI) Cmax of elagolix, co-administration vs elagolix alone", "setting": "[3]; [5]", "value": 1.77}, {"measurement": "Ratio (90% CI) AUC of elagolix, co-administration vs elagolix alone", "setting": "[3]; Rifampin 600 mg once daily", "value": 1.65}, {"measurement": "Ratio (90% CI) Cmax of elagolix, co-administration vs elagolix alone", "setting": "[3]; Rifampin 600 mg once daily", "value": 2.00}, {"measurement": "Ratio (90% CI) AUC of elagolix, co-administration vs elagolix alone", "setting": "[3]; [6]", "value": 5.58}, {"measurement": "Ratio (90% CI) Cmax of elagolix, co-administration vs elagolix alone", "setting": "[3]; [6]", "value": 4.37}, {"measurement": "plasma concentrations of elagolix with concomitant rifampin", "setting": "[3]; concomitant use of rifampin", "value": "increased"}, {"measurement": "changes in elagolix exposures", "setting": "[3]; elagolix 300 mg twice daily with rosuvastatin (20 mg once daily), sertraline (25 mg once daily) or fluconazole (200 mg single dose)", "value": "No clinically significant changes"}, {"measurement": "substrate of OATP1B1", "setting": "OATP1B1", "value": "substrate"}, {"measurement": "substrate of CYP3A", "setting": "CYP3A", "value": "substrate"}, {"measurement": "concentration at 21 lactation day", "setting": "[4]; [7]", "value": 47, "unit": "ng/mL"}, {"measurement": "concentration at 21 lactation day", "setting": "[4]; [8]", "value": 125, "unit": "ng/mL"}, {"measurement": "pup birth weights", "setting": "rats; 300 mg/kg/day", "value": "lower birth weights"}, {"measurement": "dams failing to deliver", "setting": "rats; highest dose (300 mg/kg/day)", "value": "one failed to deliver"}, {"measurement": "dams with total litter loss", "setting": "rats; highest dose (300 mg/kg/day)", "value": "two dams"}, {"measurement": "pup survival", "setting": "rats; highest dose, birth to postnatal day 4", "value": "decreased"}, {"measurement": "post-weaning growth, development and behavioral endpoints", "setting": "rats; rat, in vivo", "value": "unaffected"}, {"measurement": "maternal plasma concentration relative to maximal elagolix concentration (Cmax) in humans at the MRHD", "setting": "rats; [7]", "value": 0.04, "unit": "fold"}, {"measurement": "maternal plasma concentration relative to maximal elagolix concentration (Cmax) in humans at the MRHD", "setting": "rats; [8]", "value": 0.1, "unit": "fold"}, {"measurement": "substrate of P-gp", "setting": "P-gp", "value": "substrate"}, {"measurement": "fetal malformations", "setting": "rabbits; rabbit, any dose level tested", "value": "No fetal malformations"}, {"measurement": "dose with spontaneous abortion and total litter loss, multiple of MRHD", "setting": "rabbits; rabbits, oral, organogenesis, highest, maternally toxic dose, based on AUC", "value": 7, "unit": "times the MRHD"}, {"measurement": "total litter loss", "setting": "rabbits; rabbits, 150 mg/kg/day, non-maternally toxic", "value": "single total litter loss"}, {"measurement": "spontaneous abortions", "setting": "rabbits; [9]", "value": "three spontaneous abortions"}, {"measurement": "total litter loss", "setting": "rabbits; [9]", "value": "single total litter loss"}, {"measurement": "dose with total litter loss, multiple of MRHD", "setting": "rabbits; rabbits, lower non-maternally toxic dose of 150 mg/kg/day", "value": 4, "unit": "times the MRHD"}, {"measurement": "CYP2C19 inhibition", "setting": "CYP2C19", "value": "weak inhibitor"}, {"measurement": "dose with (increased) postimplantation loss, multiple of MRHD", "setting": "pregnant rats; pregnant rats, oral, organogenesis, mid dose group, based on AUC", "value": 12, "unit": "times the MRHD"}, {"measurement": "fetal malformations", "setting": "pregnant rats; rat, any dose level tested", "value": "No fetal malformations"}, {"measurement": "maternal deaths", "setting": "pregnant rats; rats, 300, 600 and 1200 mg/kg/day", "value": "six deaths"}, {"measurement": "CYP3A4 / CYP3A induction", "setting": "CYP3A4", "value": "weak to moderate inducer"}, {"measurement": "P-gp inhibition", "setting": "P-glycoprotein (P-gp)", "value": "inhibitor"}]}]}
